Assays:
sigma receptor [1] = test: Sigma receptor binding assay, [^3 H]DTG, guinea pig brain membrane homogenates; settings: guinea pig brain membranes; for IC50: read-out: IC50 vs [^3 H]DTG (MEAN), […] [^3 H]DTG, pH 7.4, 90 minutes at room temperature, mean with SEM and n in own columns; for Binding to / selectivity at [^3 H]DTG-labelled sigma sites: drug specificity profile
sigma binding site = settings: cited from earlier work
[2] = in vivo; cited from earlier work
sigma sites = settings: rat brain membrane; cited from earlier work
[3] = test system: dopamine-stimulated production of CAMP; settings: homogenates of rat striatum and olfactory tubercle; cited from earlier work
[4] = test system: apomorphine-induced mesolimbic behaviors; settings: without altering intensity of stereotypic behaviors; cited from earlier work
dopamine synthesis = settings: cited from earlier work
[5] = humans; cited from earlier work
sigma receptor [6] = settings: cited from earlier work
rhesus monkeys = settings: introduction of foreign objects into cages; cited from earlier work
kappa receptors = settings: cited from earlier work
mu receptors = settings: cited from earlier work
sigma receptor [7] = settings: cited from earlier work; remark: listed apart in the source
[8] = test system: D2 class of striatal dopamine receptors; settings: rat striatum; cited from earlier work
[9] = test system: D1 subclass of dopamine receptors; settings: cited from earlier work
[10] = test system: [^3 H]spiperone-labeled D2 site in striatum; settings: chronic administration (20 days) to rats; cited from earlier work
histaminergic sites = settings: cited from earlier work
rats = settings: rat, in vivo; cited from earlier work
muscarinic sites = settings: cited from earlier work
adrenergic sites = settings: cited from earlier work
cholinergic sites = settings: cited from earlier work
[11] = test system: dopamine-stimulated CAMP production; settings: in vitro; cited from earlier work

With `CC(=Nc1ccccc1C)NC12CC3CC(CC(C3)C1)C2` [N-(Adamantan-1-yl)-N'-(o-methylphenyl)acetamidine] the IC50 (sigma receptor [1]) was 7.27 nM.
In the case of `CN1CCc2cccc3c2[C@H]1Cc1ccc(O)c(O)c1-3` [apomorphine], the “Drug selectivity profile of sigma binding site” value (shortened to “Drug selectivity profile”) (sigma binding site) is listed as “insensitivity” and the “Binding to / selectivity at [^3 H]DTG-labelled sigma sites” value (“Binding to / selectivity” for short) (sigma receptor [1]) is listed as “insensitivity”.
In the case of `CC(=Nc1ccccc1C(C)C)Nc1ccccc1C(C)C` [N,N'-bis(2-isopropylphenyl)acetamidine, N,N'-Bis(2-isopropylphenyl)acetamidine], the IC50 (sigma receptor [1]) is reported as 77.4 nM.
For `C[C@@H]1CN(CCCn2c3ccccc3c3ccccc32)C[C@H](C)N1` [9-[3-(3,5-cis-dimethylpiperazino)-propyl]carbazole], the Anxiolytic activity [2] is listed as “anxiolytic activity”.
In the case of `CCc1ccccc1N=C(C)Nc1ccccc1CC` [N,N'-bis-(o-ethylphenyl)acetamidine, N,N'-Bis(2-ethylphenyl)acetamidine], the IC50 (sigma receptor [1]) is reported as 36.9 nM.
In the case of `CCCN1CCCC(c2cccc(O)c2)C1` (single isomer, unassigned; (+)) [(+)[^3 H]3-PPP, (+)[^3 H]3-(3-hydroxyphenyl)-N-(1-propyl)-piperidine], the “Selectivity for sigma sites” value (sigma sites) is listed as “selective for sigma sites” and the “Binding to / selectivity” value (sigma receptor [1]) is listed as “virtually identical receptor binding characteristics and drug selectivity profiles”.
In the case of `CC(=Nc1ccccc1C(C)C)Nc1cccc2ccccc12` [N-(1-naphthyl)-N'-(2-isopropylphenyl)-acetamidine], the IC50 (sigma receptor [1]) is reported as 118 nM.
In the case of `CC(C)=CCN1CCC2(C)c3cc(O)ccc3CC1C2C` (single isomer, unassigned; (+)) [(+)pentazocine], the “Binding to / selectivity” value (sigma receptor [1]) is reported as “stereoselectivity for dextrorotatory isomers”.
`CC(=Nc1ccccc1C)Nc1ccccc1C` [N,N'-bis(-o-tolyl)acetamidine, N,N'-Bis(o-methylphenyl)acetamidine] gave an IC50 (sigma receptor [1]) of 15 nM.
In the case of `C[C@@H]1CN(CCCn2c3ccccc3c3ccccc32)C[C@H](C)N1.Cl.Cl` [rimcazole, cis-9-[3-(3,5-dimethyl-1-piperazinyl)-propyl]carbazole dihydrochloride], the “Effect on dopamine-stimulated production of CAMP” value [3] is listed as “does not affect dopamine-stimulated production of CAMP”, the “Antagonism of apomorphine-induced mesolimbic behaviors” value [4] is listed as “antagonize apomorphine-induced mesolimbic behaviors selectively without altering the intensity of stereotypic behaviors” and the “Acceleration of rate of dopamine synthesis” value (dopamine synthesis) is listed as “does not accelerate the rate of dopamine synthesis”. The Extrapyramidal effects [5] was “without extrapyramidal effects” and the “Inhibition of specific binding of dextrorotatory tritiated SKF-10,047” value (sigma receptor [6]) was “competitively inhibit the specific binding”.
`CCc1cccc(N=C(C)Nc2cccc3ccccc23)c1` [N-(1-naphthyl)-N'-(3-ethylphenyl)-acetamidine] showed an IC50 (sigma receptor [1]) of 123 nM.
For `C=CCN1CCC2(C)c3cc(O)ccc3CC1C2C` (single isomer, unassigned; (+)) [(+)SKF-10,047, N-allyl-normetazocine], the “Drug selectivity profile” value (sigma binding site) is given as “selectively label a sigma receptor” and the “Binding to / selectivity” value (sigma receptor [1]) is given as “stereoselectivity for dextrorotatory isomers”.
Compound `CC(=NC1CCCCC1)NC12CC3CC(CC(C3)C1)C2` [N-(Adamantan-1-yl)-N'-(cyclohexyl)acetamidine] has an IC50 (sigma receptor [1]) of 71.9 nM.
`CCc1cccc(N=C(C)Nc2cccc(CC)c2)c1` [N,N'-bis(3-ethylphenyl)acetamidine, N,N'-Bis(3-ethylphenyl)acetamidine] showed an IC50 (sigma receptor [1]) of 13 nM.
For `[3H]c1ccc(NC(=N)Nc2ccc([3H])cc2C)c(C)c1` [[^3 H]DTG, N,N'-di-(4-[^3 H]-2-methylphenyl)-guanidine], the “Binding to / selectivity” value (sigma receptor [1]) was “binds specifically and with high affinity to a single class of binding sites”.
Work on `CN=C(C)Nc1ccccc1C` [N-(o-tolyl)-N'-methylacetamidine] yielded an IC50 (sigma receptor [1]) of 354 nM.
`CC(=NC12CC3CC(CC(C3)C1)C2)NC12CC3CC(CC(C3)C1)C2` [N,N'-bis(adamantan-1-yl)acetamidine, N,N'-Bis(adamantan-1-yl)acetamidine] showed an IC50 (sigma receptor [1]) of 15.7 nM.
For `CCC12CCN(CC3CC3)C(C(=O)c3ccc(O)cc31)C2C` (single isomer, unassigned; (+)) [(+)[^3 H]-ethylketazocine], the “Sigma site selectivity of radioligand” value (sigma binding site) is given as “not selective for the sigma site”.
For `C=CCN1CCC2(C)c3cc(O)ccc3CC1C2C` (single isomer, unassigned; (+)) [(+)[^3 H]SKF-10,047], the “Sigma site selectivity of radioligand” value (sigma binding site) is listed as “not selective for the sigma site”.
For `CC(=NC1CCCCC1)Nc1ccccc1C` [N-(o-Methylphenyl)-N'-(cyclohexyl)acetamidine], the IC50 (sigma receptor [1]) was 9.01 nM.
In the case of `O=C1CC2(CCCC2)CC(=O)N1CCCCN1CCN(c2ncccn2)CC1` [Buspirone], the “Efficacy in taming of aggressive response” value (rhesus monkeys) is listed as “efficacy in a predictive animal model”.
In the case of `C=CCN1CCC2(C)c3cc(O)ccc3CC1C2C` (single isomer, unassigned; (-)) [(-)-SKF-10,047, N-allyl-normetazocine], the “Drug selectivity profile” value (sigma binding site) is listed as “not the sigma receptors”, the “Binding to kappa receptors” value (kappa receptors) is listed as “labeled the mu and kappa receptors” and the “Binding to mu receptors” value (mu receptors) is listed as “labeled the mu and kappa receptors”.
In the case of `CCc1cccc(N=C(C)Nc2cccc3ccccc23)c1` [N-(1-naphthyl)-N'-(m-ethylphenyl)-acetamidine], the IC50 (sigma receptor [1]) is reported as 2410 nM.
In the case of `C=CCN1CC[C@]23c4c5ccc(O)c4O[C@H]2C(=O)CC[C@@]3(O)[C@H]1C5` [naloxone], the “Drug selectivity profile” value (sigma binding site) is given as “insensitivity” and the “Binding to / selectivity” value (sigma receptor [1]) is given as “insensitivity”.
For `OC(CCCN1CCN(c2ncc(F)cn2)CC1)c1ccc(F)cc1` (centres unmarked) [BMY 14802], the “Sigma receptor binding affinity” value (sigma receptor [7]) is given as “relatively high affinity”, the “Potency at inhibiting sigma binding, dextrorotatory vs levorotatory enantiomer” value (sigma receptor [7]; dextrorotatory more potent than levorotatory enantiomer) is given as 10 times and the “Inhibition of [^3 H]spiperone binding to D2 receptors” value [8] is given as “does not inhibit the binding”. For the same compound, the “Interaction with D1 subclass of dopamine receptors” value [9] was “does not appear to interact”, the “Inhibition of [^3 H]SCH 23390 binding” value ([9]; in vitro) was “does not inhibit” and the “Maximal density of [^3 H]spiperone-labeled D2 site in striatum” value [10] was “did not increase the maximal density”. The “Binding to histaminergic sites” value (histaminergic sites) was “does not bind”, the Catalepsy in rats (rats) was “did not cause catalepsy in rats” and the “Binding to muscarinic sites” value (muscarinic sites) was “does not bind”. For the same compound, the “Binding to adrenergic sites” value (adrenergic sites) was “does not bind”, the “Binding to cholinergic sites” value (cholinergic sites) was “does not bind” and the “Inhibition of dopamine-stimulated CAMP production” value [11] was “does not inhibit dopamine-stimulated CAMP production”.
For `O=C(CCCN1CCC(O)(c2ccc(Cl)cc2)CC1)c1ccc(F)cc1` [haloperidol], the “Drug selectivity profile” value (sigma binding site) is given as “high affinity” and the “Binding to / selectivity” value (sigma receptor [1]) is given as “high affinity”.
In the case of `NCCc1ccc(O)c(O)c1` [dopamine], the “Drug selectivity profile” value (sigma binding site) is given as “insensitivity” and the “Binding to / selectivity” value (sigma receptor [1]) is given as “insensitivity”.
With `CC(=Nc1ccccc1C)NC1CC2CCC1C2` (centres unmarked) [N-Exonorbornyl-N'-(2-methylphenyl)acetamidine] the IC50 (sigma receptor [1]) was 9.32 nM.
Compound `CC(=Nc1ccc(Br)cc1C)Nc1ccc(Br)cc1C` [N,N'-Bis(4-bromo-2-tolyl)acetamidine] has an IC50 (sigma receptor [1]) of 25.8 nM.
Work on `CC(=Nc1cccc2ccccc12)Nc1cccc2ccccc12` [N,N'-bis(1-naphthyl)acetamidine] yielded an IC50 (sigma receptor [1]) of 169 nM.
